Results on 3 compounds are retold here after patent publication US10822325B2, “Human GLUT5 specific inhibitors and methods of treatment” (UNM RAINFOREST INNOVATIONS, priority 2015, dated 2020).

The assay deals with T1, GlcPSe,F348H (Staphylococcus epidermidis, UniProt A0A0H2VG78, F348H).
T1 construct: made in house; host or cells: Escherichia coli JM1100 (pBAD); right-side-out membrane vesicles
The assay is described as follows: Glucose uptake by GlcPSe,F348H mutant in right-side-out vesicles of JM1100 E. coli cells. Format: biochemical, bacterial. The conditions noted are these: for effect on GlcPSe,F348H glucose transport: 2 mM compound, RSO vesicles. Here is the method: Glucose transport assay for GlcPSe, wild-type and F348H mutant, was performed as described previouslyl^16. GlcPSe was cloned into the pBAD vector (Invitrogen) with C-terminal 6×His tag. F348H mutation was done with the site-directed mutagenesis method^37. GlcPSe proteins were expressed in the glucose transporter deficient Escherichia coli strain JM1100. Cells were grown at 37° C., in Luria Broth medium, with 100 μg/mL ampicillin. Protein expression was induced with 0.3 mM L-arabinose at O.D.600 nm 0.6. After 3 hours, cells were harvested by centrifugation at 2,500 g for 5 min. The right-side-out (RSO) membrane vesicles of JM1100 E. coli cells were prepared as described previouslyl^16,39,40. Transport assay was initiated by the addition of ^14C-radiolabeled glucose (Moravek Biochemicals) to 50 μL RSO vesicles in 100 mM KPi buffer pH 7.5, at O.D.600 nm of 2.0. After one minute, the transport was stopped and the radioactivity was measured as described below. When inhibitors were used, they were incubated with RSO vesicles 1 minute before transport initiation.
As MSNBA seemed to be specific for GLUT5, we focused on the residues in the MSNBA predicted binding site that were different from GLUT5 compared to GLUT1-4 and GlcPSe. Among these, H387 of GLUT5 potentially interacts with the […] group of MSNBA (FIG. 4b and FIG. 6), but is a Phe in GLUT1-4 as well as GlcPSe (FIG. 4c). To test if this residue is important for MSNBA inhibition, we constructed and expressed three mutant proteins: GlcPSe,F348H, GLUT1F379H, and GLUT5H387F. As with the wild-type proteins, GLUT1F379H and GLUT5H387F were recombinantly produced in insect cells, purified and reconstituted in proteoliposomes. Their transport activity was assayed by the entrance counter-flow method in proteolipsomes. Glucose transport of GlcPSe,F348H was determined in JM1100 E. coli cells in right-side-out (RSO) vesicles.

A word on the inhibition: it is the drop in the measured response relative to a control, in per cent.

Molecules are shown by their SMILES.

T1 sequence (A0A0H2VG78 whole entry F348H): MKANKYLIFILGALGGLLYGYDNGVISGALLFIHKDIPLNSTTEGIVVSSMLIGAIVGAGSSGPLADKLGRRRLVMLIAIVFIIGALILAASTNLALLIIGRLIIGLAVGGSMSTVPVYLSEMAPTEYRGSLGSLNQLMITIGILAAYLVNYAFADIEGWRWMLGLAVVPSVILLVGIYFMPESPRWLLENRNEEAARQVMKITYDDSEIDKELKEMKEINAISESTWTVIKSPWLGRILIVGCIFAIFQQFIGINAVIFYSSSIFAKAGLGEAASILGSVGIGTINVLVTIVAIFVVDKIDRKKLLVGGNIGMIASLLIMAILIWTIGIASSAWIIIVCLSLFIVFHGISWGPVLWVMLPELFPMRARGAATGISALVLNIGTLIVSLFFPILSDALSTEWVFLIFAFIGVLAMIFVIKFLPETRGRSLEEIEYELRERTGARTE

As to `CS(=O)(=O)c1ccc(Nc2ccc3c(c2)OCO3)c([N+](=O)[O-])c1` [MSNBA, N-[4-(methylsulfonyl)-2-nitrophenyl]-1,3-benzodioxol-5-amine], the inhibition at 2000 µM (read-out: inhibition of GlcPSe,F348H transport activity) was 75%.
For the compound `C=C1[C@@H](C)[C@H]2[C@H](Cc3ccccc3)NC(=O)[C@]23OC(=O)/C=C/[C@H](O)CCC[C@@H](C)C/C=C/[C@H]3[C@@H]1O` [cytochalasin B, reference compound], the “effect on GlcPSe,F348H glucose transport” value is recorded as “decreased cytochalasin B inhibition”.
For the compound `O=C(CCc1ccc(O)cc1)c1c(O)cc(O)cc1O` [phloretin, reference compound], the “effect on GlcPSe,F348H glucose transport” value is reported as “still inhibited”.
